Laboratory results published in patent US10385057B2, “Pyrazole compounds and methods of making and using same” (Lundbeck La Jolla Research Center, Inc., priority 2015, dated 2019).

What was measured:
MAGL [1] = target: T1, MAGL (Mus musculus, UniProt O35678); assay: In vitro competitive activity-based protein profiling, mouse MAGL; format: biochemical; settings: for inhibition at 1 µM: read-out: MAGL % inh. 1 μM (mouse)
T1 construct: mouse brain membrane fraction or cell lysates for mouse assays; from tissue
T1 sequence (O35678 1-303): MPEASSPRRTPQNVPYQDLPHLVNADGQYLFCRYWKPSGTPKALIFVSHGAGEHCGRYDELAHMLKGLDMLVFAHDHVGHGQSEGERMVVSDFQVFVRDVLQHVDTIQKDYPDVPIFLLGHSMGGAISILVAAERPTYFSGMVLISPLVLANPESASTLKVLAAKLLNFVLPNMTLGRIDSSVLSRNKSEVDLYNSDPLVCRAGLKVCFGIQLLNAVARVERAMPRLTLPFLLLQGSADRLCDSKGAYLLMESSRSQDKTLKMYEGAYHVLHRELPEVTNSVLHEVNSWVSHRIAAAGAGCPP
How it was run: (§1)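 Mouse brain membranes or cell lysates (mouse) and human prefrontal cortex or cell membrane fractions (human), 1.0 mg/mL protein, preincubated with inhibitor 30 min at 37 °C, then FP-Rh or HT-01 probe 30 min at 37 °C. SDS-PAGE; MAGL and FAAH activity from in-gel fluorescence band intensity.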

FAAH = target: T2, FAAH (Mus musculus, UniProt O08914); assay: In vitro competitive activity-based protein profiling, mouse FAAH; format: biochemical; settings: for inhibition at 1 µM: read-out: FAAH % inh. 1 μM (mouse)
T2 construct: mouse brain membrane fraction or cell lysates for mouse assays; from tissue
T2 sequence (O08914 1-579): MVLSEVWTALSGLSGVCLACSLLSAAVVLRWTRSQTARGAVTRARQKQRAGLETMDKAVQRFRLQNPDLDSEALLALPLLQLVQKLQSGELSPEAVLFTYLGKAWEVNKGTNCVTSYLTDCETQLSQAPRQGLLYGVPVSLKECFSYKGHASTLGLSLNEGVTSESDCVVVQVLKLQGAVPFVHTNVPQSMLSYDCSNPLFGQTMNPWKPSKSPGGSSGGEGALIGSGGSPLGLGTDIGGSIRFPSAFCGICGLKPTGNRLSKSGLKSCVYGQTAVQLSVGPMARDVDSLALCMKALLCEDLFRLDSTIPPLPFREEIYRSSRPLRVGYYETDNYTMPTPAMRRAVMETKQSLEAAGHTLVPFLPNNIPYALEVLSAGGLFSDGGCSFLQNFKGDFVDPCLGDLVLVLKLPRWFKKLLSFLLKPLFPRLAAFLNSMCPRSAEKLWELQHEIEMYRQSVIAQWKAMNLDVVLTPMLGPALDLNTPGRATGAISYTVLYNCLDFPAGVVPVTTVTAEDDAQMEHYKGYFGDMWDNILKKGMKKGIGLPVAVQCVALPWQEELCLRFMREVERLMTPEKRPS
How it was run: as §1

MAGL [2] = target: T1, MAGL; assay: Mouse brain proteomes from inhibitor treated mice, MAGL; format: in vivo; settings: oral gavage, brain 4 h after administration, read-out: MAGL % inh. 5 mg/kg (mouse)
Experimental: Preparation of Mouse Brain Proteomes from Inhibitor Treated Mice.
Inhibitors were administered to wild-type C57Bl/6J by oral gavage in a vehicle of polyethylene glycol. Each animal was sacrificed 4 h following administration and brain proteomes were prepared and analyzed according to previously established methods (See Niphakis, M. J., et al. (2011) ACS Chem. Neurosci. and Long, J. Z., et al. Nat. Chem. Biol. 5:37-44).

Row | inhibition at 1 µM (MAGL [1]; 1 μM) | inhibition at 1 µM (FAAH; 1 μM) | inhibition at 5 mg/kg (MAGL [2]) | IC50 (MAGL [1]) | IC50 (FAAH) | Compound | MAGL % inh. 1 μM (mouse) (MAGL [1]; 1 μM) | FAAH % inh. 1 μM (mouse) (FAAH; 1 μM)
1 | ≥ 75% | ≥ 75% | ≥ 75% | 100 to 1000 nM | ≤ 100 nM | CN(Cc1ccccc1Cl)[C@@H]1C[C@@H]2CN(C(=O)n3cc(C(N)=O)cn3)C[C@@H]2C1 [Example 88, 1-(cis-5-((2-chlorobenzyl)(methyl)amino)octahydrocyclopenta[c]pyrrole-2-carbonyl)-1H-pyrazole-4-carboxamide] |  | 
2 | ≥ 75% | ≥ 75% | ≥ 75% |  |  | CN(Cc1ccccc1C(F)(F)F)[C@@H]1C[C@@H]2CN(C(=O)n3cc(C(N)=O)cn3)C[C@@H]2C1 [Example 90, 1-(cis-5-(methyl(2-(trifluoromethyl)benzyl)amino)octahydrocyclopenta[c]pyrrole-2-carbonyl)-1H-pyrazole-4-carboxamide] |  | 
3 | ≥ 75% | ≥ 75% | ≥ 75% | 100 to 1000 nM | ≤ 100 nM | CN(Cc1ccccc1Cl)[C@H]1C[C@@H]2CN(C(=O)n3cc(C(N)=O)cn3)C[C@@H]2C1 [Example 96, 1-(trans-5-((2-chlorobenzyl)(methyl)amino)octahydrocyclopenta[c]pyrrole-2-carbonyl)-1H-pyrazole-4-carboxamide] |  | 
4 | ≥ 75% | ≥ 75% | 0 to 25% | 100 to 1000 nM | ≤ 100 nM | O=C(N1CCC2(CCN(Cc3ccccc3Cl)C2)C1)n1cc(Cl)cn1 (stereo not shown) [Example 112, (4-chloro-1H-pyrazol-1-yl)(7-(2-chlorobenzyl)-2,7-diazaspiro[4.4]nonan-2-yl)methanone] |  | 
5 | ≥ 75% | ≥ 75% | 25 to 50% | 100 to 1000 nM | ≤ 100 nM | O=C(N1CC2CN(Cc3ccccc3Cl)CC2C1)n1cc(Cl)cn1 (stereo not shown) [Example 116, (4-chloro-1H-pyrazol-1-yl)(5-(2-chlorobenzyl)hexahydropyrrolo[3,4-c]pyrrol-2(1H)-yl)methanone] |  | 
6 | ≥ 75% | ≥ 75% | ≥ 75% | 100 to 1000 nM | ≤ 100 nM | O=C(N1CC2CN(Cc3ccc(Cl)cc3)CC2C1)n1cc(Cl)cn1 (stereo not shown) [Example 118, (4-chloro-1H-pyrazol-1-yl)(5-(4-chlorobenzyl)hexahydropyrrolo[3,4-c]pyrrol-2(1H)-yl)methanone] |  | 
7 | ≥ 75% | ≥ 75% | ≥ 75% | ≤ 100 nM | ≤ 100 nM | O=C(N1CC2CN(Cc3ccc(Cl)c(Cl)c3)CC2C1)n1cc(Cl)cn1 (stereo not shown) [Example 119, (4-chloro-1H-pyrazol-1-yl)(5-(3,4-dichlorobenzyl)hexahydropyrrolo[3,4-c]pyrrol-2(1H)-yl)methanone] |  | 
8 | ≥ 75% | ≥ 75% |  |  |  | CN(Cc1ccc(-c2nccs2)cc1C(F)(F)F)[C@H]1C[C@@H]2CN(C(=O)n3cc(C(N)=O)cn3)C[C@@H]2C1 [Example 224, 1-(trans-5-(methyl(4-(thiazol-2-yl)-2-(trifluoromethyl)benzyl)amino)octahydrocyclopenta[c]pyrrole-2-carbonyl)-1H-pyrazole-4-carboxamide] |  | 
9 | ≥ 75% | 50 to 75% |  |  |  | CN(Cc1ccc(-c2cccnn2)cc1C(F)(F)F)[C@H]1C[C@@H]2CN(C(=O)n3cc(C(N)=O)cn3)C[C@@H]2C1 [Example 225, 1-(trans-5-(methyl(4-(pyridazin-3-yl)-2-(trifluoromethyl)benzyl)amino)octahydrocyclopenta[c]pyrrole-2-carbonyl)-1H-pyrazole-4-carboxamide] |  | 
10 | ≥ 75% | ≥ 75% |  |  |  | CN(Cc1ccc(-c2cnccn2)cc1C(F)(F)F)[C@@H]1C[C@@H]2CN(C(=O)n3cc(C(N)=O)cn3)C[C@@H]2C1 [Example 226, 1-(cis-5-(methyl(4-(pyrazin-2-yl)-2-(trifluoromethyl)benzyl)amino)octahydrocyclopenta[c]pyrrole-2-carbonyl)-1H-pyrazole-4-carboxamide] |  | 
11 | ≥ 75% | ≥ 75% |  |  |  | CN(Cc1ccc(-c2nccs2)cc1C(F)(F)F)[C@@H]1C[C@@H]2CN(C(=O)n3cc(C(N)=O)cn3)C[C@@H]2C1 [Example 227, 1-(cis-5-(methyl(4-(thiazol-2-yl)-2-(trifluoromethyl)benzyl)amino)octahydrocyclopenta[c]pyrrole-2-carbonyl)-1H-pyrazole-4-carboxamide] |  | 

Second part, the compound before the results:

Row | Compound | inhibition at 1 µM (MAGL [1]; 1 μM) | inhibition at 1 µM (FAAH; 1 μM) | inhibition at 5 mg/kg (MAGL [2]) | IC50 (MAGL [1]) | IC50 (FAAH) | MAGL % inh. 1 μM (mouse) (MAGL [1]; 1 μM) | FAAH % inh. 1 μM (mouse) (FAAH; 1 μM)
12 | NC(=O)c1cnn(C(=O)N2CCC3(CCN(Cc4cc(Cl)ccc4Cl)C3)C2)c1 (stereo not shown) [Example 39, 1-(7-(2,5-dichlorobenzyl)-2,7-diazaspiro[4.4]nonane-2-carbonyl)-1H-pyrazole-4-carboxamide] | ≥ 75% | ≥ 75% | ≥ 75% |  |  |  | 
13 | NC(=O)c1cnn(C(=O)N2CCC3(CCN(Cc4cccc(C(F)(F)F)c4)C3)C2)c1 (stereo not shown) [Example 41, 1-(7-(3-(trifluoromethyl)benzyl)-2,7-diazaspiro[4.4]nonane-2-carbonyl)-1H-pyrazole-4-carboxamide] | ≥ 75% | ≥ 75% | ≥ 75% | 100 to 1000 nM | ≤ 100 nM |  | 
14 | NC(=O)c1cnn(C(=O)N2CCC3(CCN(Cc4cc(Cl)cc(C(F)(F)F)c4)C3)C2)c1 (stereo not shown) [Example 43, 1-(7-(3-chloro-5-(trifluoromethyl)benzyl)-2,7-diazaspiro[4.4]nonane-2-carbonyl)-1H-pyrazole-4-carboxamide] | ≥ 75% | ≥ 75% | ≥ 75% | ≤ 100 nM | ≤ 100 nM |  | 
15 | NC(=O)c1cnn(C(=O)N2CCC3(CCN(Cc4ccc(N5CCOCC5)cc4C(F)(F)F)C3)C2)c1 (stereo not shown) [Example 45, 1-(7-(4-morpholino-2-(trifluoromethyl)benzyl)-2,7-diazaspiro[4.4]nonane-2-carbonyl)-1H-pyrazole-4-carboxamide] | ≥ 75% | ≥ 75% | ≥ 75% | 100 to 1000 nM | ≤ 100 nM |  | 
16 | O=C(c1cnn(C(=O)N2CCC3(CCN(Cc4ccc(N5CCOCC5)cc4C(F)(F)F)C3)C2)c1)N1CCCC1 (stereo not shown) [Example 50, (1-(7-(4-morpholino-2-(trifluoromethyl)benzyl)-2,7-diazaspiro[4.4]nonane-2-carbonyl)-1H-pyrazol-4-yl)(pyrrolidin-1-yl)methanone] | ≥ 75% | ≥ 75% | 0 to 25% | 100 to 1000 nM | ≤ 100 nM |  | 
17 | CNC(=O)c1cnn(C(=O)N2C[C@H]3C[C@@H](N(C)Cc4ccc(C(F)(F)F)cc4)C[C@H]3C2)c1 [Example 54, N-methyl-1-(cis-5-(methyl(4-(trifluoromethyl)benzyl)amino)octahydrocyclopenta[c]pyrrole-2-carbonyl)-1H-pyrazole-4-carboxamide] | ≥ 75% | ≥ 75% | ≥ 75% | 100 to 1000 nM | ≤ 100 nM |  | 
18 | CN(Cc1ccc(C(F)(F)F)cc1)[C@@H]1C[C@@H]2CN(C(=O)n3cc(C(N)=O)cn3)C[C@@H]2C1 [Example 55, 1-(cis-5-(methyl(4-(trifluoromethyl)benzyl)amino)octahydrocyclopenta[c]pyrrole-2-carbonyl)-1H-pyrazole-4-carboxamide] | ≥ 75% | ≥ 75% | ≥ 75% | ≤ 100 nM | ≤ 100 nM |  | 
19 | CN(Cc1ccccc1Cl)[C@@H]1C[C@@H]2CN(C(=O)n3cc(Cl)cn3)C[C@@H]2C1 [Example 59, (4-chloro-1H-pyrazol-1-yl)(trans-5-((2-chlorobenzyl)(methyl)amino)hexahydrocyclopenta[c]pyrrol-2(1H)-yl)methanone] |  |  | ≥ 75% | ≤ 100 nM | ≤ 100 nM | A (% inhibition greater than or equal to 75%) | A (% inhibition greater than or equal to 75%)
